This assay has as its system MV4-11 cells. The experiment in a line: Anticancer activity: Alamar Blue 3-day proliferation assay. Format: cell-based. Conditions: AML cell line MV4-11, 72 h, read-out: MV4-11 EC50_μM. On the procedure:
Anticancer Activity: Alamar Blue Assay
The impact of the compounds on cancer cell proliferation was determined using the AML cell line MV4-11 (ATCC) in a 3-day proliferation assay. MV4-11 cells were maintained in RPMI supplemented with 10% FBS at 37° C., 5% CO2. For compound testing, MV4-11 cells were plated in a 96-well black bottom plate at a density of 15,000 cells/well in 100 μL culture media and incubated at 37° C. overnight. Compound dilution series were prepared in DMSO via a 3-fold serial dilution from 100 μM to 0.005 μM. The DMSO dilution series were then diluted with media, with the final compound concentrations added to the wells ranging from 10 μM to 0.0005 μM. […] The fluorescent readings from the Alamar Blue assay were normalized to the DMSO treated cells and analyzed using the GraphPad Prism software with sigmoidal curve fitting to obtain EC50.

Each structure is given as a SMILES string.

Regarding `CCNC(=O)CC1N=C(c2c(F)cccc2F)c2cc(OC)ccc2-c2cn(C)c(=O)cc21` (racemic) [Compound 38, ±2-(7-(2,6-difluorophenyl)-9-methoxy-2-methyl-3-oxo-3,5-dihydro-2H-benzo[c]pyrido[3,4-e]azepin-5-yl)-N-ethylacetamide], the EC50 is 0.013 µM.
